Results published in US20240287054A1, “COMPOUNDS THAT BIND NON-CANONICAL G-QUADRUPLEX STRUCTURES AND METHODS OF MAKING AND USING THE SAME” (The U.S.A., as Represented by the Secretary, Department of …, priority 2021, published 2024).

Assays:
[1] = tested on: 12 different G4 oligos as well as non-G4 oligos (dsDNA and ssDNA); test: Small-scale DNA G4 microarray binding selectivity; details: fluorescent compound incubated 1 h; B33 at 2.5 μM
Description: In this example, a small-scale DNA G4 microarray containing 12 different G4 oligos as well as non-G4 oligos (dsDNA and ssDNA) was fabricated and tested (Table 4). To start with, a SA-coated glass surface was prepared. An amino-functionalized glass slide was firstly modified with a solution of N, N′-disuccinimidyl carbonate (DSC, 1.0 M) and N, N-diisopropylethylamine (DIPEA, 1.0 M) in DMF overnight at room temperature. After being washed successively with EtOH, Milli-Q water (5 min each) and dried with N2 gas, the slide was incubated with 1 mg/mL of SA solution for 12 h (overnight) in a 4° C. fridge, followed by blocking the surface with EA buffer for 30 minutes. Then, the slide was rinsed with PBS buffer and Milli-Q water, and dried b centrifugation (1,700 g, 2 min).
In parallel, biotin-labeled DNA/RNA oligos were prepared in annealing buffer resulting in 5 μM stock solutions, followed by annealing (according to above methods). Then all the oligo solutions were transferred into a 384-well plate. Next, the microarray printing was conducted by a robotic arrayer (Nanoprint, Arrayit, USA) with a humidity of 60%. After the microarray was fabricated, the slide was placed in a slide box with a piece of wet Kimwipe tissue and incubated at 4° C. for 2 h.
To incubate with the fluorescent compounds (compound B33, thiazole orange (“TO”), and amsacrine), the slide was thoroughly rinsed with PBST, PBS, and water to remove the unbounded oligos. Then, the slide was dried by centrifugation (1,700 g, 2 min) and quickly assembled with microarray gaskets (Agilent, USA), followed by loading the compound solutions. After 1 h incubation, the slide was washed and dried with the above-mentioned method. Finally, the microarray slide was imaged by a fluorescence scanner (Mapix) using green channel and the fluorescence intensities were quantified.

[2] = tested on: ~19,000 different G4 sequences, G4 and non-G4 controls; test: High-density DNA oligo microarray (~19,000 G4 sequences) selectivity profiling; assay type: binding; details: 500 nM compound
Text: To further characterize the binding selectivity of compound B33, high-density and large-scale DNA microarrays that contained ˜19,000 different G4 sequences were fabricated and used. In this microarray, 340 reported G4s (G-rich sequences) as well as 280 non-G4s (C-rich sequences) were designed as positive and negative controls. Additionally, over 17,000 canonical G4 oligos with short loops (1˜7 nt) were also designed and synthesized by varying the loop sequences to meet the diversity of G4 structure. After folding the surface-grafted DNA oligos in high concentration of KCl buffer, TO and compound B33 solutions (500 nM) were incubated with the microarray, respectively. Then the slides were thoroughly washed, dried, and imaged by a fluorescent scanner using green channel. […] By quantifying the fluorescence intensity of each spot, the bindings of TO and compound B33 were further investigated. The kernel density estimate (KDE) plot and violin plot represented the distribution of the binding signals throughout the whole microarray. […] Compound B33 spectrum spanned a much wider range than that of TO. In the violin plot (FIG. 37C), the mean SNR value of TO group was 12, much higher than that of the compound B33 group. […] Furthermore, the selectivity of the two compounds were quantitatively profiled by using Gini coefficient. Gini coefficient, initially used as an economic concept, has been applied in profiling the selectivity/promiscuity of kinase inhibitors as well as RNA binders. A higher Gini value represents a better selectivity of a compound (Gini coefficient>0.75 is considered an excellent selectivity). The Gini coefficient based on the SNRs in the microarray.

[3] = Solubility / aggregation observations in binding buffers; assay type: physicochemical; details: assay buffers, SPR sensorgrams
Description: A systematic binding assay between 14 analogs and MYCN G4 was performed by SPR and 2-AP (A11) fluorescence titration (FIGS. 26A-26N, 27A-27N). […] For 2-AP fluorescence titration assay (using an A11-substituted construct) observed KD values aligned well with SPR experiments, although the values were slightly lower overall. […] Taking all the SAR data into consideration, MY-8 was elected for cell-based assays.

[4] = tested on: MYCN G4 DNA (hairpin minor groove); test: Fluorescence displacement assay with Hoechst 33258; assay type: binding, human; details: competitor added at 5 μM or 50 μM during DNA titration
Description: Fluorescence displacement assay. Fluorescence displacement assays were carried out by using two classical minor groove binders (Hoechst 33258 and netropsin). Hoechst 33258, as a fluorophore, was prepared at 5 μM concentration in the buffer (10 mM Tris, pH7.0, 100 mM KCl), and then titrated with different concentrations of unlabeled MYCN G4 oligonucleotides. For displacement, either compound MY-1 or netropsin was added into the solution resulting in a final concentration of 5 μM or 50 μM. Fluorescence signals were obtained with an excitation wavelength of 352 nm and an emission wavelength of 500 nm.

SMILES: CN1C(=Cc2cc[n+](C)c3ccccc23)Sc2ccccc21 [TO]
- binding pattern in G4 microarray [1]: binding to most of the oligos except for dsDNA/ssDNA
- binding to the 620 G4 and non-G4 controls ([2]; 340 G4s and 280 non-G4s): binding to both G4s and non-G4s
- Gini coefficient ([2]; based on SNRs in the microarray): 0.236
- mean SNR value ([2]; whole microarray): 12

SMILES: COc1ccc(-c2noc(-c3ccc(NCCC4=CCCCC4)nn3)n2)cc1 [MY-4]
- solubility / aggregation [3]: had solubility in suitable buffers

SMILES: COc1ccc(-c2noc(-c3ccc(NCCc4ccccc4)nn3)n2)cc1 [MY-9]
- solubility / aggregation [3]: had solubility in suitable buffers

SMILES: Cn1cc(NC(=O)c2cc(NC(=O)CN=C(N)N)cn2C)cc1C(=O)NCCC(=N)N [Netropsin, reference compound]
- displacement of Hoechst 33258 (decrease in fluorescence intensity) [4]: significant displacement
